This note sets out measurements from ChEMBL document CHEMBL1770059, “Identification of chemicals to inhibit the kinase activity of leucine-rich repeat kinase 2 (LRRK2), a Parkinson's disease-associated protein” (Bioorg Med Chem Lett, 2011).

Test [1] addresses Serine/threonine-protein kinase mTOR (Homo sapiens) (UniProt P42345). The test can be described thus: Inhibition of mTOR assessed as residual activity of enzyme at 25 uM.
The target of test [2] is Mitogen-activated protein kinase kinase kinase 9 (Homo sapiens) (UniProt P80192). The test can be described thus: Inhibition of MLK1 assessed as residual activity of enzyme at 25 uM.
Mitogen-activated protein kinase kinase kinase 9 (Homo sapiens), sequence (P80192 whole entry, looked up): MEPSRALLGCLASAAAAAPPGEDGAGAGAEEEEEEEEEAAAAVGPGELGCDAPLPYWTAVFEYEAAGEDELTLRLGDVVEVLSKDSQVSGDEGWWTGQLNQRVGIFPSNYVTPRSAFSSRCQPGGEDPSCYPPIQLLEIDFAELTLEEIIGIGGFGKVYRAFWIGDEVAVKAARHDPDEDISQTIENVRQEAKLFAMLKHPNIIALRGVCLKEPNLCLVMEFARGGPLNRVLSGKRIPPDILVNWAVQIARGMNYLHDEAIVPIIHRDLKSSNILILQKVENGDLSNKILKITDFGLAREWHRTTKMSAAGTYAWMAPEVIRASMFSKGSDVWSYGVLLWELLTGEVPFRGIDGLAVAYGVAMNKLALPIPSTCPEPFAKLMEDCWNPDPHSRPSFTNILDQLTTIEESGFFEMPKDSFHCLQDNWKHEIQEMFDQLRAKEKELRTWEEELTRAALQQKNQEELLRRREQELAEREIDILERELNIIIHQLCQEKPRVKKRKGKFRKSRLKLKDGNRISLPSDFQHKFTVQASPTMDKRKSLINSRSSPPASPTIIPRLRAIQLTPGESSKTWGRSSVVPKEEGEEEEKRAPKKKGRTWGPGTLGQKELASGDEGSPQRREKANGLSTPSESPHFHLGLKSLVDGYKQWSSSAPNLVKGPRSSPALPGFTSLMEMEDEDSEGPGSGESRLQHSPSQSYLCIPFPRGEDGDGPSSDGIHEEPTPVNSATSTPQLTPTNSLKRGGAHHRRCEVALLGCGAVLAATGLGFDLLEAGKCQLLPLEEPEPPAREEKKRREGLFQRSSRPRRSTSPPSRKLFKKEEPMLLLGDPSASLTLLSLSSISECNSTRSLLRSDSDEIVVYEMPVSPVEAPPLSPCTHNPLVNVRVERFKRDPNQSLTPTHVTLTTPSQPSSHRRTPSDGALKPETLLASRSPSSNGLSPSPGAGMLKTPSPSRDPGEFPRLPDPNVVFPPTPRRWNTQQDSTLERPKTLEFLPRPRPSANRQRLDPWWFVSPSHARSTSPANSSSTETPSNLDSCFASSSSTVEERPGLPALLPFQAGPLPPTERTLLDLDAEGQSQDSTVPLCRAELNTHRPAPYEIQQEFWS
In test [3] the target is T1, Cyclin-dependent kinase 5/CDK5 activator 1 (Homo sapiens) (UniProt Q00535+Q15078). In words: Inhibition of CDK5/p25 assessed as residual activity of enzyme at 25 uM. It counts as protein-complex assay.
T1 sequence (Q00535 whole entry): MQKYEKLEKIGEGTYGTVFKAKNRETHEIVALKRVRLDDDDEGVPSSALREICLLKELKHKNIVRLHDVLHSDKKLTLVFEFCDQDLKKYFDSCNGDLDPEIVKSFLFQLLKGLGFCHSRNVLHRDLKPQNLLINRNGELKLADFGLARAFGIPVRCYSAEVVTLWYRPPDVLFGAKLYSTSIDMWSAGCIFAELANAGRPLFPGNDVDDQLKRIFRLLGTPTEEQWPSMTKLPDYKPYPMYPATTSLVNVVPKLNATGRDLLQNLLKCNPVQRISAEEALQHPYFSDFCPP
T1 sequence (Q15078 99-307 partner limits assumed): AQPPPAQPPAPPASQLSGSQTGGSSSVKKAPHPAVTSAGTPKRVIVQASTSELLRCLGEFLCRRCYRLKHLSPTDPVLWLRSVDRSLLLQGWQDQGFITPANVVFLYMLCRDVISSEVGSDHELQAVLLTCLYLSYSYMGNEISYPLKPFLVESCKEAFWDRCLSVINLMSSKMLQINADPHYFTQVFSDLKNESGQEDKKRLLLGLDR
Test [4] addresses T1, Cyclin-dependent kinase 5/CDK5 activator 1 (Homo sapiens). The test can be described thus: Inhibition of CDK5/p25 assessed as residual activity of enzyme at 10 uM. It is filed as protein-complex assay.
The target in test [5] is Leucine-rich repeat serine/threonine-protein kinase 2 (Homo sapiens, UniProt Q5S007, G2019S). The test can be described thus: Inhibition of purified N-terminal GST-tagged LRRK2 G2019S mutant autophosphorylation activity using myelin basic protein as substrate.
Leucine-rich repeat serine/threonine-protein kinase 2, sequence (Q5S007 whole entry G2019S): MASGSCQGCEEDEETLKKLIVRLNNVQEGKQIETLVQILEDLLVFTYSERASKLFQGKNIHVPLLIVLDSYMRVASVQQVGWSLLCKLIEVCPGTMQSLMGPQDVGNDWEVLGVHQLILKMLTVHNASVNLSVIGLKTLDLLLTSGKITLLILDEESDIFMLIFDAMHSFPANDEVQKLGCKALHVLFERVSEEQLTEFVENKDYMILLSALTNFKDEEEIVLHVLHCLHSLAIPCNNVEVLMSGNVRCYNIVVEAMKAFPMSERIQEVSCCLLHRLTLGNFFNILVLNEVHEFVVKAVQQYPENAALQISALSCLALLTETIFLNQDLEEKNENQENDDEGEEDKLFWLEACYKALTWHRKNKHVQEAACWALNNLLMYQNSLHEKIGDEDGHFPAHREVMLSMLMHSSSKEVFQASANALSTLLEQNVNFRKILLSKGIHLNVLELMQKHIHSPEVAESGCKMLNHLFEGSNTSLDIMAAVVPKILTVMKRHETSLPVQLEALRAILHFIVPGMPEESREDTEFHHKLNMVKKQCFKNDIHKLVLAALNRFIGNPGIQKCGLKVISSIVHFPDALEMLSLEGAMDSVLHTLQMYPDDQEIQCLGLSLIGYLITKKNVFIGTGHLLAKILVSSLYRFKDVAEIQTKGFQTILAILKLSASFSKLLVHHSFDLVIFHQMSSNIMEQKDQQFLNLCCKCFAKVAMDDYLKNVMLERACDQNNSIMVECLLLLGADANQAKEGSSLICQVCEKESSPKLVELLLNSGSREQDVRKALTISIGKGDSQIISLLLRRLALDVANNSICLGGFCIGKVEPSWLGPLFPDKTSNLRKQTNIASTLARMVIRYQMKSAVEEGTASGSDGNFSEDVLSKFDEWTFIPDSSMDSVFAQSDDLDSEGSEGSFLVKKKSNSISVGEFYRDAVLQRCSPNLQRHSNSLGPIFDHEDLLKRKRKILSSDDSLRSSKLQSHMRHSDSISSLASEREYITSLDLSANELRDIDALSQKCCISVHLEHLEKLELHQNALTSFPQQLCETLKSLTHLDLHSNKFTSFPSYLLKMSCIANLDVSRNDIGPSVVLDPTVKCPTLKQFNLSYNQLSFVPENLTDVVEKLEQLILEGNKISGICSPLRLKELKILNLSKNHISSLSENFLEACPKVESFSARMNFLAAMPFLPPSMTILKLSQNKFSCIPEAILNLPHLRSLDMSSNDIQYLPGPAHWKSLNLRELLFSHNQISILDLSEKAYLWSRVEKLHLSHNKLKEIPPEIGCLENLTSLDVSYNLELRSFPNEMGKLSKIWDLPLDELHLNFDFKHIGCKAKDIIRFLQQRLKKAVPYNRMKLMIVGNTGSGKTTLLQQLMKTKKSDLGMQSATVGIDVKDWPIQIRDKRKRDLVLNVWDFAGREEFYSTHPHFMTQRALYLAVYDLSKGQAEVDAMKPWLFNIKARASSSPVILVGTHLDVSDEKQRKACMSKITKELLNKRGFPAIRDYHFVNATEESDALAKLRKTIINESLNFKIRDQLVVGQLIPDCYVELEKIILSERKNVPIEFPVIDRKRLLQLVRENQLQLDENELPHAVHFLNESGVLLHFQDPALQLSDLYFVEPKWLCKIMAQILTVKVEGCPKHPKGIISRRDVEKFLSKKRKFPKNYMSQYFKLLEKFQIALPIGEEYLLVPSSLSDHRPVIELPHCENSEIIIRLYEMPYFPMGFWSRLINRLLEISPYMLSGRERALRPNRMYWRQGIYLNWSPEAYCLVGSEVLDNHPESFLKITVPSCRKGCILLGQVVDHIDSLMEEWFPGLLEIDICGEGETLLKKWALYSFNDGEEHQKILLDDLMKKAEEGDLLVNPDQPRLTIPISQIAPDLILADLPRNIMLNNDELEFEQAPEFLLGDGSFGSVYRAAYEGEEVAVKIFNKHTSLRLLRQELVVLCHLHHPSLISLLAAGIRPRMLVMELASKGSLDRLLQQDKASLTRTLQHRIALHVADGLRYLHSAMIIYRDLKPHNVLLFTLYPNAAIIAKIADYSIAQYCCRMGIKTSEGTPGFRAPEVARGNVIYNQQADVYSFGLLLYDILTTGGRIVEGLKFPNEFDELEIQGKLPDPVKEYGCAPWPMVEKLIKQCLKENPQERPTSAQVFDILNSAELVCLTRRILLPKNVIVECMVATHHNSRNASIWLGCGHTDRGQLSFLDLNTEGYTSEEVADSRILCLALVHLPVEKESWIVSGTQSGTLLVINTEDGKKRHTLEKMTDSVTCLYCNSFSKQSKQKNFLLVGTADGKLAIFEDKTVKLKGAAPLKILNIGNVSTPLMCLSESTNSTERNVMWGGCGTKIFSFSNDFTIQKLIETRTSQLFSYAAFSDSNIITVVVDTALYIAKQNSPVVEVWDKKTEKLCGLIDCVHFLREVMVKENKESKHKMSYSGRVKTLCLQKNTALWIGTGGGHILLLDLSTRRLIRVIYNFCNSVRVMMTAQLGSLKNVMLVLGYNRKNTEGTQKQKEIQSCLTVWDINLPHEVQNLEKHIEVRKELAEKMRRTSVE
For test [6], the system named is Leucine-rich repeat serine/threonine-protein kinase 2 (Homo sapiens), Q5S007 [G2019S]. The test can be described thus: Inhibition of LRRK2 G2019S mutant expressed in mouse SN4741 cells assessed as reduction in hydrogen peroxide-induced neurotoxicity at 10 uM by measuring cell survival after 48 hrs by crystal violet assay relative to control. It counts as cell-based.
Leucine-rich repeat serine/threonine-protein kinase 2 (Homo sapiens), Q5S007 [G2019S], sequence (Q5S007 whole entry G2019S): as above

The target in test [7] is T2, Serine/threonine-protein kinase TAO3 (Homo sapiens) (UniProt Q9H2K8).
T2 sequence (whole entry): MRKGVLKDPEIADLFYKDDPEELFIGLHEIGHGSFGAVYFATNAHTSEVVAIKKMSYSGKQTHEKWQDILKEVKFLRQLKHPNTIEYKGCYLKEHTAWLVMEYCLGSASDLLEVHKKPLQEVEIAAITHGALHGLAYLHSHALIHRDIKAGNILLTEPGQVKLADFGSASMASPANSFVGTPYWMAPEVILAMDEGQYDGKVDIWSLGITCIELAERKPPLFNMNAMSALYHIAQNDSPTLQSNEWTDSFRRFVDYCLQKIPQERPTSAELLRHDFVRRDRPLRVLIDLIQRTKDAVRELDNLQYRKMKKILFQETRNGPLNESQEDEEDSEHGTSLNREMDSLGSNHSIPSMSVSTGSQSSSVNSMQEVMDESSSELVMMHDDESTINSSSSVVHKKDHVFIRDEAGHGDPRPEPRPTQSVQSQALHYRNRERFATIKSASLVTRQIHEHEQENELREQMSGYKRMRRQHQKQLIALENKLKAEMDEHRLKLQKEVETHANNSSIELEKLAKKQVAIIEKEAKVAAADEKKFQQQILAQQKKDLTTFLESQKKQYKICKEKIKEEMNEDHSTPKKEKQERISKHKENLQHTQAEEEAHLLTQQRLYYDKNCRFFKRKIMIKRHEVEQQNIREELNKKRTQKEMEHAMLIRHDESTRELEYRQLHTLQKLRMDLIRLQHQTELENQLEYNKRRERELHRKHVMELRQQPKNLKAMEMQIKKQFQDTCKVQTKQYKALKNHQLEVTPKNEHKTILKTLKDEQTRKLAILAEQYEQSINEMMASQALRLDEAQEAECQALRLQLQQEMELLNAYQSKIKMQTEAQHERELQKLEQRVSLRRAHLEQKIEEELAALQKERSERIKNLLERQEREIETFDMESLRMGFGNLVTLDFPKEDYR
In words: Inhibition of TAO3 assessed as residual activity of enzyme at 10 uM.

Test [8] relates to Leucine-rich repeat serine/threonine-protein kinase 2 (Homo sapiens), Q5S007 [G2019S]. The test can be described thus: Inhibition of purified N-terminal GST-tagged LRRK2 G2019S mutant assessed as residual activity of enzyme at 10 uM.
The target in test [9] is Serine/threonine-protein kinase mTOR (Homo sapiens) (UniProt P42345). In words: Inhibition of mTOR assessed as residual activity of enzyme at 10 uM.
For test [10], the target named is RAF proto-oncogene serine/threonine-protein kinase (Homo sapiens) (UniProt P04049). In words: Inhibition of c-Raf assessed as residual activity of enzyme at 25 uM.
RAF proto-oncogene serine/threonine-protein kinase (Homo sapiens), sequence (P04049 whole entry): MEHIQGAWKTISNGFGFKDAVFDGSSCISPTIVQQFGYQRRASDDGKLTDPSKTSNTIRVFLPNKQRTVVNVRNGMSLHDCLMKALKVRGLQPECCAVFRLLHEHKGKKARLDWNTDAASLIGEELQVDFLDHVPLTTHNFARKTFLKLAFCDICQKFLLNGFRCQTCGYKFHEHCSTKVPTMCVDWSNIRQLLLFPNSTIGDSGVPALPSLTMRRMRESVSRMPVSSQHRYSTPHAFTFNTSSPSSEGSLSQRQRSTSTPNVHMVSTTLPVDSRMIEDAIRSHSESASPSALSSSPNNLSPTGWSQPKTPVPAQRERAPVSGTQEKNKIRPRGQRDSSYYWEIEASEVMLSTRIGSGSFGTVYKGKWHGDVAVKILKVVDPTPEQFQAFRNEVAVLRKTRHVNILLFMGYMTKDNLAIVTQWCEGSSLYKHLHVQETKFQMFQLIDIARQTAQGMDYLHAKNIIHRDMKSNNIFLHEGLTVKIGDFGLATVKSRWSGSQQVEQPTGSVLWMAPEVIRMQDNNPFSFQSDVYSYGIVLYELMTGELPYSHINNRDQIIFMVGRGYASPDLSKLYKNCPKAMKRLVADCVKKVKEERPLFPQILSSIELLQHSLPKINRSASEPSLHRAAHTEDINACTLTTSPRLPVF
In test [11] the target is T3, Mitogen-activated protein kinase kinase kinase 5 (Homo sapiens) (UniProt Q99683).
T3 sequence (whole entry): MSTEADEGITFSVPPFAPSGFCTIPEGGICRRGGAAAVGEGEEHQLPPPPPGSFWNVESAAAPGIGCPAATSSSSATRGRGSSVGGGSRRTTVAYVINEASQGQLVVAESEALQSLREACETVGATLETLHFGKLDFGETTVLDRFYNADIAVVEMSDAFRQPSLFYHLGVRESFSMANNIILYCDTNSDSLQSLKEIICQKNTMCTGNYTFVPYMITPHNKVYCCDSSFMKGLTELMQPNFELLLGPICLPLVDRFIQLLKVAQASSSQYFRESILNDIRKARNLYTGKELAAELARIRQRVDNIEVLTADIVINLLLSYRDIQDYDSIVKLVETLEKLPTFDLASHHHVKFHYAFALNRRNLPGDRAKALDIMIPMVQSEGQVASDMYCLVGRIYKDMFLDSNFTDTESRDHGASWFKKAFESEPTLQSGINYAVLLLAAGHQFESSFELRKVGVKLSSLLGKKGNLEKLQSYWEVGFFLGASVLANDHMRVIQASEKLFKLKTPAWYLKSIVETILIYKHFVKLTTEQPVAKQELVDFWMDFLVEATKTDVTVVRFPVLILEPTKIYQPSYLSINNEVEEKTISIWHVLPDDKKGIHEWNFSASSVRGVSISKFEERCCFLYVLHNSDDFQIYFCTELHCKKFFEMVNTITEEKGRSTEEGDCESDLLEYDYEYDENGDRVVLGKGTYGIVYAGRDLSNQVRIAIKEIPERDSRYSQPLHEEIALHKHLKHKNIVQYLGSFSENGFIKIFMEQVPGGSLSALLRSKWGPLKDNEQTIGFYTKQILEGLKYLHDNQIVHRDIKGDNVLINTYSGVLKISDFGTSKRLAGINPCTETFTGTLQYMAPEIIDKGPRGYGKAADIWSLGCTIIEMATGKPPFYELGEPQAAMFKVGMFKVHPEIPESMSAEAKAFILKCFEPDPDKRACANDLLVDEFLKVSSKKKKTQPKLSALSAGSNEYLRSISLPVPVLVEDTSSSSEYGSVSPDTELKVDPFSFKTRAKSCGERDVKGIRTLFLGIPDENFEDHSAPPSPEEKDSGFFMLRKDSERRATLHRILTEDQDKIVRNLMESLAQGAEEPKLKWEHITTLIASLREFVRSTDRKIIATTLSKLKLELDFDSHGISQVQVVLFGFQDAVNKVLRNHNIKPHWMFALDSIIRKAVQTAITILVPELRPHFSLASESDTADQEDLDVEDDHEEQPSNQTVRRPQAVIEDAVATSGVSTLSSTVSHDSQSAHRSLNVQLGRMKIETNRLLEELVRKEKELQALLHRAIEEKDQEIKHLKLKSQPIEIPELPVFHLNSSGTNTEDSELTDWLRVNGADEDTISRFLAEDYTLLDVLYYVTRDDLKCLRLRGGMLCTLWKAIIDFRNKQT
The test can be described thus: Inhibition of ASK1 assessed as residual activity of enzyme at 25 uM.

Test [12] deals with T2, Serine/threonine-protein kinase TAO3 (Homo sapiens). The test can be described thus: Inhibition of TAO3 assessed as residual activity of enzyme at 25 uM.
In test [13] the target is Casein kinase I isoform alpha (Homo sapiens) (UniProt P48729). In words: Inhibition of CK1 assessed as residual activity of enzyme at 25 uM.

A word on the IC50: it is the point on the concentration scale where inhibition reaches its midpoint.

As for `Cc1cc(N/N=C/c2ccncc2)nc2ccccc12`, the Activity in test [1] amounted to 99%; in test [2] it was 12%; in test [3], 81%; in test [4] it was 97%; in test [6], 50%; in [7], 97%. Further, the Activity in test [8] was 28%; in test [9], 103%; in test [10] it was 86%; in [11] it was 68%; in [12], 81%; in test [13], 59%. This compound gave a concentration for half-maximal inhibition (IC50) in [5] of 4.1 µM.
